Experimental data from patent US20260191815A1, “THIOACRYLAMIDE DERIVATIVES FOR USE IN THE PREVENTION OR TREATMENT OF LIVER FIBROSIS” (CMR CUREDIAB METABOLIC RESEARCH GMBH, priority 2022, published 2026).

Key:
[1] = system: alpha-1 type 1 collagen (COL1A1) protein in LX2 cells; assay: Simple Western of COL1A1 protein in TGF-β1-stimulated LX2 hepatic stellate cells; format: cell-based, human; conditions: for upregulation of COL1A1 in TGF-β1-treated LX2 cells: 10 μM, 30 min pretreatment, then 5 ng/ml TGF-β1 for 24 h; for protein abundance of COL1A1: sole treatment 10 μM for 24 h, LX2 cells, no TGF-β1
Experimental: The human hepatic stellate cell line LX2 was purchased from Merck. The cells were used up to passage ten and incubated under sterile conditions at 37° C. and 5% CO2. The cells were cultivated in medium containing Dulbecco's Modified Eagle's Medium with 4.5 g/l glucose (ThermoFisher), 4 mmol/l glutamine (ThermoFisher), 2% fetal bovine serum (FBS) (Merck), 100 U/ml penicillin and 100 μg/ml streptomycin (Merck). After 2 days, LX2 cells were starved for FBS for 24 h and then pretreated with 10 μM HK1 (Taros Chemicals GmbH & Co. KG) or 10 μM HK3 (Taros Chemicals GmbH & Co. KG) for 30 min. Subsequently, 5 ng/ml recombinant TGF-β1 (R&D Systems, Minneapolis, MN, USA) was added to the hepatic stellate cell cultures for 24 h. LX2 cells were also incubated with 5 ng/ml TGF-β1 alone as positive control for the hepatic stellate cell activation. Recombinant TGF-β1 was dissolved in sterile 4 mmol/l HCl (Merck) containing 0.1% bovine serum albumin (Roth Karlsruhe, Germany) as carrier protein. HK1 and HK3 were dissolved in sterile dimethyl sulfoxide (DMSO) (Sigma-Aldrich, Munich, Germany). Stimulations with 10 μM HK1, 10 μM HK3 and the corresponding vehicles (HCl and DMSO with or without HCl) alone for 24 h were also included as treatments.
For the measurement of the pro-fibrotic proteins, Western Blotting was performed. Proteins were extracted from whole cell lysate of LX2 cells using RIPA lysis buffer containing 50 mmol/l Tris-HCl (pH 8.0), 150 mmol/l NaCl, 1% IGEPAL® CA-630, 0.5% sodium deoxycholate, 0.1% sodium dodecyl sulfate, 10% PhosSTOP Phosphatase Inhibitor Cocktail (Roche, Basel, Switzerland) and 10% cOmplete Mini Protease Inhibitor Cocktail (Roche). Lysates were centrifuged at 14850×g for 15 min at 4° C. Then, the total protein content of the lysates was determined using a bicinchoninic acid protein assay (ThermoFisher Scientific) in accordance with the manufacturer's instructions. The quantification of protein abundance was performed by Simple Western size-based assays using a 12-230 kDa and 66-440 kDa Separation Module (ProteinSimple, San Jose, CA, USA) according to the manufacturer's instructions. This fully automated Western blotting system is based on a capillary electrophoresis technology. The separation, immobilization to the capillary wall via a proprietary, photoactivated capture chemistry and immunodetection of the proteins using a horseradish peroxidase (HRP)-conjugated secondary antibody and chemiluminescent substrate take place directly in the capillary without gel separation and transfer steps to blotting paper. The chemiluminescence is measured at multiple exposure times and automatically quantified by the Compass for Simple Western software (version 4.1.0) (ProteinSimple). The chemiluminescent signal for immunodetected proteins, which can be represented as an electropherogram or virtual blot-like image, is automatically quantified by calculation of the area under the curve of the peak.
The software reports the molecular weight, the area (in an arbitrary unit and in percent) and signal to noise ratio for each protein detected. The primary antibodies for the recognition of endogenous levels of total alpha-1 type 1 collagen (COL1A1) protein (#72026) and total fibronectin 1 (FN1) protein (#26836) were purchased from Cell Signaling Technology (Danvers, MA, USA). The anti-rabbit HRP-linked secondary antibody was from ProteinSimple. […]
Differences were analysed by one-way ANOVA followed by the Tukey method as correction for multiple testing.

[2] = system: 3D primary human hepatocyte (PHH) spheroid NASH model; assay: Intracellular lipid accumulation (AdipoRed) in 3D PHH:NPC NASH spheroids; format: cell-based; conditions: NASH medium; for lipid contents of spheroids compared to NASH (100%): 1 week of exposure
Experimental: Experiments were conducted using HepaPredict's (HepaPredict AB, Sweden) 3D primary human hepatocyte (PHH) spheroid NASH model (e.g. as published in Bell et al. Sci Rep. 2016 May 4; 6:25187. doi: 10.1038/srep25187).
Cryopreserved primary human hepatocytes were obtained from BioIVT (USA) and nonparenchymal cells (NPC) from LifeNetHealth (USA). After thawing, PHH-NPC cocultures were seeded in a multi-well 96-well Elplasia plate (Corning) in William's E medium containing 11 mM glucose, 10 μg/mL (control) or 10 mg/mL insulin (NASH), 100 nM dexamethasone, 5.5 mg/L transferrin, 6.7 μg/L selenite, 2 mM L-glutamine, 1 U/mL penicillin, 0.1 mg/mL streptomycin, and 10% fetal bovine serum (FBS). PHH-NPC cocultures were seeded in ratio of 6:1 PHH:NPC with a total of 40,000 PHH per well. When spheroids were formed, FBS was phased out and spheroids were maintained in either the same media to provide the negative control (“Ctrl”), or with addition of albumin-conjugated free fatty acid (FFA), comprised of 240 μM palmitic acid and 240 μM oleic acid (NASH medium) to provide the positive control (“NASH”). Compound exposure was conducted in NASH medium with medium exchanges every 48-72 hours.
For cell viability and intracellular lipid accumulation assays, cells were seeded as previously reported (Bell et al., SciRep, 2016). In short, PHH and NPC were seeded as a single spheroid per well into 96-well ultra-low attachment (ULA) plates (Corning) at 1,500 viable cells per well with the PHH:NPC ratio 6:1.
After spheroid formation, cells were exposed to up to five different concentrations of the candidate molecules HK1 or HK3 (0.1 μM, 0.3 μM, 1 μM, 3 μM, and 10 μM) with or without FFA in the culture medium. All compound stocks and dilutions were prepared in DMSO, aliquoted and stored protected from light at −20° C. Fresh dosing solutions were prepared from these aliquots on each dosing day. All endpoints were evaluated after 14 days of exposure.
For statistical comparisons, normalized values for a given condition were compared to either the corresponding vehicle (DMSO) controls or the respective FFA (NASH) controls at the same time point using heteroscedastic unpaired two-tailed t-tests.
Intracellular lipid accumulation was quantified using the AdipoRed Adipogenesis Assay Kit (Lonza) following the manufacturer's instructions. […] Afterwards, spheroids were disrupted by vigorous pipetting and fluorescence was measured (Ex/Em: 485/572) using a SpectraMax iD5 multi-mode microplate reader (Molecular Devices).
To evaluate whether the two candidate compounds HK1 and HK3 impacted hepatic steatosis, we assessed their impact on intracellular triglyceride accumulation after 1 week of exposure. […]

SMILES | upregulation of COL1A1 in TGF-β1-treated LX2 cells [1] | protein abundance of COL1A1 [1] | lipid contents of spheroids compared to NASH (100%) ([2]; 1 μM) [%] | lipid contents of spheroids compared to NASH (100%) ([2]; 3 μM) [%] | lipid contents of spheroids compared to NASH (100%) ([2]; 10 μM) [%] | accumulation of intracellular lipids compared to the positive control ([2]; across 1 μM, 3 μM and 10 μM, 1 week)
Cc1cc(NC(=S)/C(C#N)=C(\O)C2CC2)ccc1F [HK1, 2-Cyano-3-cyclopropyl-N-(4-fluoro-3-methyl-phenyl)-3-hydroxy-thioacrylamide] | completely suppressed | no impact | 79 | 81 | 62 | 
Cc1cc(NC(=S)/C(C#N)=C(\O)C2CC2)ccc1[N+](=O)[O-] [HK3, 2-Cyano-3-cyclopropyl-3-hydroxy-N-(3-methyl-4-nitro-phenyl)-thioacrylamide] | completely suppressed | no impact |  |  |  | 46-49%
